The subject of one assay is InsII. The assay is described as follows: Affymetrix gene chip analysis of KKAy islets: InsII. Format: in vivo, mice. The note with it: ISV vs. KKAy control islets, 9 weeks. The method, then: (§1) cRNA preparation and in vitro transcription: In total 6 Affymetrix arrays MOE430 2.0 probe array cartridge were used i.e. for analysis of 3 replicas for the KKAy control group and the ISV group, respectively. Each of the 6 samples consisted of pooled RNA from 3-4 KKAy mice. Preparation of target for hybridization was prepared from 340 ng of total RNA using MessageAmp™ II aRNA Amplification Kits (Ambion), according to the manufacturers instructions. Arrays were hybridised and scanned as described elsewhere (Kruhoffer et al., 2005).

The test system of the next assay is Ins1. In words: Relative real time RT-PCR in islets of KKAy mice (Example 3): Ins1. Type of assay: in vivo. Particulars: 9 weeks. The protocol:
(§2) Islets were isolated by the collagenase digestion technique. In brief, the animals were anesthetized with pentobarbital (50 mg/kg intraperitoneally) and midline laparotomy was performed. The pancreas was retrogradely filled with 3 mL ice-cold Hanks balanced salt solution (([HBSS] Sigma Chemical, St Louis, Mo.) supplemented with 0.3 mg/ml collagenase Boehringer Mannheim GmbH, Germany). The pancreas was subsequently removed and incubated for 19 minutes at 37° C. After rinsing in HBSS, the islets were handpicked under a stereomicroscope and immediately transferred to a tubes containing 1 ml Trizol (Gibco/Invitrogene, Calsbad, Calif., USA). The islets isolated from the NMRI mice were incubated overnight at 37° C. and 95% normal atmosphere/5% CO2 in 10 ml RPMI 1640 containing 11.1 mmol/L glucose supplemented with penicillin G and 100 μg/mL streptomycin (all Gibco/Invitrogene, Calsbad, Calif., USA).
(§3) For each group, islets from 3-4 mice (180-200 islets) were pooled in 1 ml Trizol reagent (Gibco/lnvitrogene, Calsbad, Calif., USA) before RNA purification. Total RNA was extracted according to the manufactures' instructions. RNA was quantified by measuring absorbance at 260 and 280 nm. The quality of the RNA was checked by the Agilent 2100 bioanalyzer (Agilent, Santa Clara, USA). […]
Background: In qPCR the cycle at which signal appears reflects the starting amount.

The subject of another assay is Pdx1. The assay is described as follows: Affymetrix gene chip analysis of KKAy islets: Pdx1. Format: in vivo, mice. The note with it: ISV vs. KKAy control islets, 9 weeks. The method, then:
as §1

A further assay concerns 11beta-HSD1. In words: Gene expression in islets from diabetic KKAy-mice, real time RT-PCR (Example 2): 11beta-HSD1. Particulars: islets of KKAy-mice after nine weeks treatment, normalized to 18S rRNA. Format: in vivo. The method, then: (§4) A the end of the nine week period of the in vivo study in example 1 RNA was purified from Islets, muscle, liver and fat from the three experimental groups, using standard techniques as described in Kiergen, RNA easy.
(§5) Gene expression of PDX-1, IRS1, Beta2, 11beta-HSD-1, Akt1, C/EBP-alpha, CPT1, GLUT2, IGF1, IR and Ins1 was measured with Real time RT-PCR using Taq Man Assays normalized to 18S rRNA, using the standard protocol (ABI, USA). All reagents were obtained from (ABI, USA). All probes are standard probes obtainable from ABI, USA, under the specific probe code number, given in respect of each gene.

The next assay deals with Pdx1/Ipf1. The assay is described as follows: Relative real time RT-PCR in islets of KKAy mice (Example 3): Pdx1/Ipf1. Format: in vivo. The note with it: 9 weeks. The method, then: as §2, §3
The subject of a further assay is GLUT2. The assay is described as follows: Affymetrix gene chip analysis of KKAy islets: GLUT2. The note with it: ISV vs. KKAy control islets, 9 weeks. Format: in vivo, mice. The protocol:
as §1

For another assay, the system named is PDX-1. In words: Gene expression in islets from diabetic KKAy-mice, real time RT-PCR (Example 2): PDX-1. The note with it: islets of KKAy-mice after nine weeks treatment, normalized to 18S rRNA. Format: in vivo. The protocol: as §4, §5
The subject of another assay is Foxa2. In words: Affymetrix gene chip analysis of KKAy islets: Foxa2. Type of assay: in vivo, mice. Particulars: ISV vs. KKAy control islets, 9 weeks. The protocol:
as §1

A further assay relates to IR. In words: Affymetrix gene chip analysis of KKAy islets: IR. Format: in vivo, mice. Particulars: ISV vs. KKAy control islets, 9 weeks. The protocol: as §1
In the next assay the test system is visfatin. In words: Affymetrix gene chip analysis of KKAy islets: visfatin. The note with it: ISV vs. KKAy control islets, 9 weeks. Type of assay: in vivo, mice. The protocol:
as §1

The subject of assay [1] is total insulin protein content of KKAy islets. The assay is described as follows: Insulin content of isolated islets from KKAy mice (RIA). Type of assay: in vivo. The note with it: KKAy mice after 9 weeks treatment. The protocol:
The Insulin content of isolated islet from the KKAy mice was measured using RIA as described for the Insulin assay. Total islet protein was purified from the organic phase during from the RNA Trizol preparation according to the manufactures instruction (Gibco BRL, Life Technologies, Roskilde, DK).
In order to clarify if this increased levels of Ins1 mRNA are translated, the total insulin content from the very limited protein fraction collected from the organic phase during RNA preparation from isolated islets from the KKAY and ISV group was measured using RIA (FIG. 17). The insulin content from the ISV group compared to the KKAy control was 2.4 fold (p=0.003) higher, supporting the gene expression analysis.

The test system of another assay is IGF-1. The assay is described as follows: Gene expression in islets from diabetic KKAy-mice, real time RT-PCR (Example 2): IGF-1. Type of assay: in vivo. The note with it: islets of KKAy-mice after nine weeks treatment, normalized to 18S rRNA. The protocol: as §4, §5

As for `C[C@@]12CC[C@@H]3[C@@](CC[C@H]4[C@@]3(C)CCC[C@@]4(C)C(=O)O)(CC1=O)C2` (single isomer, unassigned; ent-16) [ISV, ent-16-ketobeyeran-19-oic acid], the “array: change of InsII expression” value in the assay on InsII is given as “no changes”. Further, the “increase in Ins1 expression” value in the assay on Ins1 (RT-PCR) is “more than 2 fold”. Also, the “increased expression of Ins1, ISV group vs. control group” value with Ins1 (normalized to 18S rRNA) was found to be 132%. Further, the “array: change of Pdx1 expression” value with Pdx1 is listed as “upregulation”. For the same molecule, the “decreased expression of 11beta-HSD1 compared to standard diet” value in the assay on 11beta-HSD1 is recorded as 61%. Further, the “up regulation of Pdx1” value in the assay on Pdx1/Ipf1 (RT-PCR) was roughly 2 fold. For the same molecule, the “increased expression of Pdx1/Ipf1, ISV group vs. control group” value with Pdx1/Ipf1 (normalized to 18S rRNA) stood at 96%. The “array: change of GLUT2 expression” value with GLUT2 is on record as “upregulation”. The “increased expression of PDX-1 compared to standard diet” value with PDX-1 came to 96%. Further, the “array: increased expression in Foxa2” value in the assay with Foxa2 was found to be 1.9 fold. Moreover, the “array: change of IR expression” value with IR is “no changes”. For the same molecule, in the assay on visfatin, the “array: change of visfatin expression” value is listed as “no changes”. Further, the “insulin content of islets compared to the KKAy control, higher” value in [1] is 2.4 fold. In addition, the “decreased expression of IGF1 compared to standard diet” value with IGF-1 is reported as 46%.

Source of the values: patent publication US20100093861A1, “TREATMENT OF INSULIN RESISTANCE OR DISEASES ASSOCIATED WITH INSULIN RESISTANCE” (Stevia ApS, priority 2006, published 2010).
